Here are results for 18 compounds from patent US20110183969A1, “ANTIFUNGAL COMBINATION THERAPY” (priority 2008, published 2011).

Holding throughout (assay): MIC (YAG medium)
Format in all cases: cell-based

One assay relates to Aspergillus terreus AT4. The settings on record: Aspergillus terreus; YAG medium; MIC banded into grades; AT4; read-out: MIC A. terreus (grade). The gist of the method:
(§1)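 Spores harvested from 5-day Sabouraud agar cultures were diluted in YAG medium (1% glucose, 1% ammonium chloride, 0.5% yeast extract) to final inocula of 1-2×10^4 cfu/mL and exposed to doubling dilutions of compound (50-0.05 mg/L). After 24 hrs at 35° C, OD485 was read; MIC is the lowest concentration giving >70% growth inhibition versus drug-free control.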

The subject of another assay is Aspergillus terreus AT49. The settings on record: Aspergillus terreus; YAG medium; MIC banded into grades; AT49; read-out: MIC A. terreus 49 (grade). The gist of the method:
as §1

A further assay relates to Aspergillus niger. The settings on record: Aspergillus niger; YAG medium; MIC banded into grades; read-out: MIC A. niger (grade). The gist of the method:
as §1

In assay [1] the test system is Aspergillus fumigatus AF293. The settings on record: Aspergillus fumigatus; YAG medium; MIC banded into grades; AF293; read-out: MIC A. fumigatus (grade). The gist of the method: as §1
The test system of assay [2] is Aspergillus fumigatus AF210. Particulars: Aspergillus fumigatus; YAG medium; MIC banded into grades; AF210; read-out: MIC A. fumigatus 210 (grade). The gist of the method:
as §1

The subject of the next assay is Aspergillus flavus. The settings on record: Aspergillus flavus; YAG medium; MIC banded into grades; read-out: MIC A. flavus (grade). The gist of the method:
as §1

Each structure is given as a SMILES string. Values after ≈ are worked out from the molar mass of the structure shown. Bounds are passed on as bounds.

As a reminder, the MIC is the lowest concentration that inhibits growth of the organism. Turning to `Cc1cc(C)nc(N(C)CCN(C)c2ccc(NC(=O)C(=O)c3c(-c4ccccc4)cc4ccccn34)cc2)c1` [Example 55, N-[4-({2-[(4,6-Dimethyl-pyridin-2-yl)-methyl-amino]-ethyl}-methyl-amino)-phenyl]-2-oxo-2-(2-phenyl-indolizin-3-yl)-acetamide], the minimum inhibitory concentration (MIC) (in the assay with Aspergillus terreus AT4; with Aspergillus terreus AT49; in the assay with Aspergillus niger; in assay [1]; in assay [2]; in the assay with Aspergillus flavus) was below 1 µg/mL throughout.

Take `O=C(Nc1ccc(N2CCN(c3ccc(CN4CCOCC4)cc3)CC2)cc1)C(=O)c1c(-c2ccccc2)cc2ccccn12` [Example 56, N-{4-[4-(4-Morpholin-4-ylmethyl-phenyl)-piperazin-1-yl]-phenyl}-2-oxo-2-(2-phenyl-indolizin-3-yl)-acetamide]: the MIC (in the assay with Aspergillus terreus AT4; in the assay on Aspergillus terreus AT49; in the assay on Aspergillus niger; in assay [1]; in assay [2]; with Aspergillus flavus) was below 1 µg/mL throughout.

In the case of `COCCOc1cc(C)nc(N2CCN(c3ccc(NC(=O)C(=O)c4c(-c5ccccc5)cc5ccccn45)cc3)CC2)c1` [Example 57, N-(4-{4-[4-(2-Methoxy-ethoxy)-6-methyl-pyridin-2-yl]-piperazin-1-yl}-phenyl)-2-oxo-2-(2-phenyl-indolizin-3-yl)-acetamide], the MIC (in the assay on Aspergillus terreus AT4; with Aspergillus terreus AT49; in the assay on Aspergillus niger; in assay [1]; in assay [2]; in the assay on Aspergillus flavus) was below 1 µg/mL in each case.

Take `Cc1cc(C)nc(N2CCN(c3ccc(NC(=O)C(=O)c4c(C5CC5)cc5ccccn45)cc3)CC2)c1` [Example 58, 2-(2-Cyclopropyl-indolizin-3-yl)-N-{4-[4-(4,6-dimethyl-pyridin-2-yl)-piperazin-1-yl]-phenyl}-2-oxo-acetamide]: the minimal inhibitory concentration (MIC) (with Aspergillus terreus AT4; in the assay with Aspergillus terreus AT49; with Aspergillus niger; in assay [1]; in assay [2]; in the assay with Aspergillus flavus) was below 1 µg/mL in each case.

Take `O=C(Nc1ccc(N2CCN(c3cccnc3)CC2)cc1)C(=O)c1c(-c2ccccc2)cc2ccccn12` [Example 59, 2-Oxo-2-(2-phenyl-indolizin-3-yl)-N-[4-(4-pyridin-3-yl-piperazin-1-yl)-phenyl]-acetamide]: the MIC (in the assay with Aspergillus terreus AT4; in the assay on Aspergillus terreus AT49; in the assay with Aspergillus niger; in assay [1]; in assay [2]; in the assay with Aspergillus flavus) was below 1 µg/mL in each case.

Regarding `Cc1cc(C)nc(N2CCN(c3ccc(NC(=O)C(=O)c4c(C5CCCCC5)cc5ccccn45)cc3)CC2)c1` [Example 60, 2-(2-Cyclohexyl-indolizin-3-yl)-N-{4-[4-(4,6-dimethyl-pyridin-2-yl)-piperazin-1-yl]-phenyl}-2-oxo-acetamide], the minimum inhibitory concentration (MIC) (in the assay with Aspergillus terreus AT4; with Aspergillus terreus AT49; with Aspergillus niger; in assay [1]; in assay [2]; with Aspergillus flavus) was below 1 µg/mL in each case.

On to `Cc1cc(C)nc(N2CCN(c3ccc(NC(=O)C(=O)c4c(C(C)C)cc5ccccn45)cc3)CC2)c1` [Example 61, N-{4-[4-(4,6-Dimethyl-pyridin-2-yl)-piperazin-1-yl]-phenyl}-2-(2-isopropyl-indolizin-3-yl)-2-oxo-acetamide], for which the MIC (in the assay on Aspergillus terreus AT4; with Aspergillus terreus AT49; in the assay on Aspergillus niger; in assay [1]; in assay [2]; in the assay with Aspergillus flavus) was below 1 µg/mL throughout.

As to `Cc1cc(C)nc(N2CCN(c3ccc(NC(=O)C(=O)c4c(C(C)(C)C)cc5ccccn45)cc3)CC2)c1` [Example 62, 2-(2-tert-Butyl-indolizin-3-yl)-N-{4-[4-(4,6-dimethyl-pyridin-2-yl)-piperazin-1-yl]-phenyl}-2-oxo-acetamide], the MIC in the assay with Aspergillus terreus AT4 is 1 to 10 µg/mL (≈ 1.96 to 19.6 µM); in the assay on Aspergillus terreus AT49, above 10 µg/mL; in the assay on Aspergillus niger, above 10 µg/mL; in assay [1], above 10 µg/mL; in assay [2] it was above 10 µg/mL; in the assay with Aspergillus flavus it was above 10 µg/mL.

Turning to `Cc1cc(C)nc(N2CCN(c3ccc(NC(=O)C(=O)c4c(C5CCN(C)CC5)cc5ccccn45)cc3)CC2)c1` [Example 63, N-{4-[4-(4,6-Dimethyl-pyridin-2-yl)-piperazin-1-yl]-phenyl}-2-[2-(1-methyl-piperidin-4-yl)-indolizin-3-yl]-2-oxo-acetamide], the minimum inhibitory concentration (MIC) (in the assay on Aspergillus terreus AT4; in the assay with Aspergillus terreus AT49; in the assay on Aspergillus niger; in assay [1]; in assay [2]; with Aspergillus flavus) was above 10 µg/mL throughout.

As for `Cc1cc(C)nc(N(C)CCOc2ccc(NC(=O)C(=O)c3c(-c4ccccc4)cc4ccccn34)cc2)c1` [Example 64, N-(4-{2-[(4,6-Dimethyl-pyridin-2-yl)-methyl-amino]-ethoxy}-phenyl)-2-oxo-2-(2-phenyl-indolizin-3-yl)-acetamide], the MIC (in the assay on Aspergillus terreus AT4; with Aspergillus terreus AT49; in the assay on Aspergillus niger; in assay [1]; in assay [2]; with Aspergillus flavus) was below 1 µg/mL each time.

As for `Cc1cc(C)nc(OCCOc2ccc(NC(=O)C(=O)c3c(-c4ccccc4)cc4ccccn34)cc2)c1` [Example 65, N-{4-[2-(4,6-Dimethyl-pyridin-2-yloxy)-ethoxy]-phenyl}-2-oxo-2-(2-phenyl-indolizin-3-yl)-acetamide], the MIC (in the assay on Aspergillus terreus AT4; in the assay on Aspergillus terreus AT49; in the assay with Aspergillus niger; in assay [1]; in assay [2]; in the assay with Aspergillus flavus) was below 1 µg/mL each time.

For the compound `Cc1cc(C)nc(N2CCN(c3ccc(NC(=O)C(=O)c4c(C5CCOCC5)cc5ccccn45)cc3)CC2)c1` [Example 66, N-{4-[4-(4,6-Dimethyl-pyridin-2-yl)-piperazin-1-yl]-phenyl}-2-oxo-2-[2-(tetrahydro-pyran-4-yl)-indolizin-3-yl]-acetamide], the MIC (in the assay on Aspergillus terreus AT4; in the assay on Aspergillus terreus AT49; in the assay on Aspergillus niger; in assay [1]; in assay [2]; with Aspergillus flavus) was below 1 µg/mL throughout.

Regarding `Cc1cc(C)nc(N(C)CCCN(C)c2ccc(NC(=O)C(=O)c3c(-c4ccccc4)cc4ccccn34)cc2)c1` [Example 67, N-[4-({3-[(4,6-dimethyl-pyridin-2-yl)-methyl-amino]-propyl}-methyl-amino)-phenyl]-2-oxo-2-(2-phenyl-indolizin-3-yl)-acetamide], the minimum inhibitory concentration (MIC) (with Aspergillus terreus AT4; in the assay with Aspergillus terreus AT49; in the assay with Aspergillus niger; in assay [1]; in assay [2]; in the assay with Aspergillus flavus) was below 1 µg/mL throughout.

With `COCCN(C)c1ccc(N2CCN(c3ccc(NC(=O)C(=O)c4c(-c5ccccc5)cc5ccccn45)cc3)CC2)cn1` [Example 68, N-[4-(4-{6-[(2-Methoxy-ethyl)-methyl-amino]-pyridin-3-yl}-piperazin-1-yl)-phenyl]-2-oxo-2-(2-phenyl-indolizin-3-yl)-acetamide], the minimal inhibitory concentration (MIC) (with Aspergillus terreus AT4; in the assay on Aspergillus terreus AT49; with Aspergillus niger; in assay [1]; in assay [2]; with Aspergillus flavus) was below 1 µg/mL in each case.

Take `Cc1cc(C)nc(NCCN(C)c2ccc(NC(=O)C(=O)c3c(-c4ccccc4)cc4ccccn34)cc2)c1` [Example 69, N-(4-{[2-(4,6-dimethyl-pyridin-2-ylamino)-ethyl]-methyl-amino}-phenyl)-2-oxo-2-(2-phenyl-indolizin-3-yl)-acetamide]: the MIC (in the assay with Aspergillus terreus AT4; with Aspergillus terreus AT49; in the assay with Aspergillus niger; in assay [1]; in assay [2]; with Aspergillus flavus) was below 1 µg/mL in each case.

On to `Cc1cc(OCCOc2ccc(NC(=O)C(=O)c3c(-c4ccccc4)cc4ccccn34)cc2)cc(C)n1` [Example 71, N-{4-[2-(2,6-Dimethyl-pyridin-4-yloxy)-ethoxy]-phenyl}-2-oxo-2-(2-phenyl-indolizin-3-yl)-acetamide], for which the minimum inhibitory concentration (MIC) in the assay on Aspergillus terreus AT4 was below 1 µg/mL; with Aspergillus terreus AT49, below 1 µg/mL; with Aspergillus niger, 1 to 10 µg/mL (≈ 1.98 to 19.8 µM); in assay [1], below 1 µg/mL; in assay [2], below 1 µg/mL; in the assay with Aspergillus flavus, 1 to 10 µg/mL (≈ 1.98 to 19.8 µM).

As for `Cc1cc(C)nc(CCCCc2ccc(NC(=O)C(=O)c3c(-c4ccccc4)cc4ccccn34)cc2)c1` [Example 72, N-{4-[4-(4,6-Dimethyl-pyridin-2-yl)-butyl]-phenyl}-2-oxo-2-(2-phenyl-indolizin-3-yl)-acetamide], the MIC (in the assay on Aspergillus terreus AT4; in the assay on Aspergillus terreus AT49; with Aspergillus niger; in assay [1]; in assay [2]; in the assay on Aspergillus flavus) was below 1 µg/mL in each case.

Consider `CCc1cccc(N2CCN(c3ccc(NC(=O)C(=O)c4c(-c5ccccc5)cc5ccccn45)cc3)CC2)n1` [Example 73, N-{4-[4-(6-ethyl-pyridin-2-yl)-piperazin-1-yl]-phenyl}-2-oxo-2-(2-phenyl-indolizin-3-yl)-acetamide], for which the MIC (in the assay with Aspergillus terreus AT4; in the assay with Aspergillus terreus AT49; in the assay with Aspergillus niger; in assay [1]; in assay [2]; with Aspergillus flavus) was below 1 µg/mL throughout.
